Where two headings read alike, the source gives them in different places. Each block holds one molecule with its values, some of them ahead of it.
What was measured:
[1] = test system: FGFR1 in H520 cells (phospho-ERK1/2); experiment: Drug washout Western blot assay, H520 cells; format: cell-based; conditions: H520; 2 hours exposure; 100, 300 and 600 nM; with and without washout
SW780 cells = experiment: Oxic and anoxic anti-proliferative activity of the prodrugs; format: cell-based; conditions: for IC50: Homo sapiens, SW780, oxic conditions, read-out: Cellular Anti-proliferative IC50, SW780, Oxic
[2] = Pulse radiolysis of prodrugs; format: physicochemical
H520 cells = experiment: Oxic and anoxic anti-proliferative activity of the prodrugs
SUM52 cells = experiment: as above
[3] = Murine plasma pharmacokinetics assay; format: in vivo, NIH-III nude mice; conditions: for AUC(0-inf) / half-life / Cmax / Tmax / AUC(0-t): female, NIH-III nude, mouse, ip, plasma; for AUC(0-t): observed, read-out: AUC0-24
Experimental: Compound 204 was formulated in water for injection at 2 or 4 mg/ml to be administered by intraperitoneal injection at 0.02 ml/g body weight to achieve a 40 or 80 mg/kg dose. Specific pathogen-free female NIH-III mice (Crl:NIH Lyst^bg Foxn1^nu Btk^xid) were obtained from the Vernon Jansen Unit (VJU), The University of Auckland. To minimize exogenous infection, mice were maintained in individually ventilated cages at 6 mice per cage (Sealsafe Plus Mouse AERO, Tecniplast) and handled in accordance with the Guide for the Care and Use of Laboratory Animals, The University of Auckland. Mice had access to water and food ad libitum. Following dosing, at the specified time points (0.5, 1, 2, 4, 6 and 24 hours, n=3 per time point) mice were anaesthetised (isoflurane inhalation) and blood collected through cardiac puncture. Mice were subsequently culled via cervical dislocation whilst anaesthetized. Blood was collected in ice cold tubes (BD Microtainer® containing K2EDTA) and centrifuged (7 minutes at 6,500 rpm) to separate the plasma fraction. Plasma samples were stored at −80° C. until analysis. Control mice were injected with vehicle only and plasma collected as described. Prior to analysis by LC-MS/MS, calibration standards were prepared in control mouse plasma with a synthetic standard of Compound 204. Plasma samples expected to be outside the range of these standards were diluted in control mouse plasma. Standards and samples were mixed with 3 volumes of ice-cold acetonitrile containing internal standard (2 uL) and then centrifuged at 13000 rpm for 10 minutes at 4° C. The resulting supernatant was diluted in 2 volumes of 0.01% formic acid in water and 10 uL injected onto the LC-MS/MS system using an established quantitative analysis method. Pharmacokinetic parameters resulting from model fit of Compound 204 plasma concentration-time data were then derived where Tmax=time at maximum concentration, Tmax-obs=time at maximum observed concentration, Cmax-obs=maximum concentration observed, Cmax=maximum concentration determined by model, T1/2=half-life of Compound 204 in plasma during elimination phase, AUC0-24=observed area under the mean concentration-time curve, AUC0-inf=area under the concentration-time curve of the model fit.

[4] = test system: SW780 (FGFR3-amplified bladder cancer) xenograft; experiment: Anti-tumour activity, SW780 xenograft; format: in vivo, NIH-III nude mice; conditions: q3dx4, IP
Experimental: Specific pathogen-free homozygous female NIH-III nude mice (Charles River Laboratories, Wilmington, Mass.) were inoculated subcutaneously with a single cell suspension of SW780 cells (8×10^6 cells/100 μL with Matrigel; right flank) or SNU-16 cells (10×10^6 cells/100 μL; right flank). When tumour xenografts were established (typically 7-14 days for SW780 and 21-28 days for SNU-16) mice were randomized to treatment groups. Test compounds of the present invention were prepared in Water for Injection (WFI). Mice were dosed by intraperitoneal injection (0.01-0.03 ml/g) using the stated schedules and dose levels. […] Tumour size and body weights were measured at regular intervals. Tumour volume was calculated as […] (length×width^2)/6.

[5] = test system: SNU-16 (FGFR2-amplified) gastric cancer xenograft; experiment: Anti-tumour activity, SNU-16 xenograft; format: in vivo, NIH-III nude mice; conditions: 80 mg/kg, q7dx2, IP; to day 11
[6] = test system: 4T1 murine syngeneic breast cancer cells; experiment: Anti-tumour activity, murine 4T1 model; format: in vivo, BALB/c mice; conditions: 70 mg/kg IP, controls 16 days
Experimental: Studies in BALB/c mice: 4T1 murine syngeneic breast cancer cells (7.5×10^6 cells/mouse) were implanted into the subcutaneous space, in the right flank of immunocompetent BALB/c female mice. Treatment with Compound 204 started at the stated day post cell-implant. Compound 204 was administered intraperitoneally at the stated dose and schedule in Water for Injection. Tumour measurements and body weight were recorded every day, until all tumours increased their volume 4-fold (RTV^4) from day0 of experimental assignment.

[7] = test system: SiHa xenograft (tumour hypoxia); experiment: EF5 immunostaining and MALDI imaging mass spectrometry assay; format: in vivo, NIH-III nude mice; conditions: 86 mg/kg IP, tumours collected after 24 hours; EF5 60 mg/kg
[8] = read-out: Cellular Anti-proliferative IC50, H520, Oxic, oxic conditions
[9] = read-out: Cellular Anti-proliferative IC50, SUM52, Oxic, oxic conditions

- IC50 (SW780 cells): 2120 nM
- first order rate of fragmentation kfrag [2]: 26 s⁻¹
- melting point: 171 to 174 °C
- IC50 (H520 cells; [8]): 1730 nM
Compound: COc1cc(OC)c(Cl)c(N2Cc3cnc(NC(C)C)nc3N(C3CCN(C(=O)/C=C/C[N+](C)(C)Cc4c([N+](=O)[O-])ncn4C)CC3)C2=O)c1Cl.[Br-] [Compound 202, (E)-4-(4-(3-(2,6-dichloro-3,5-dimethoxyphenyl)-7-(isopropylamino)-2-oxo-3,4-dihydropyrimido[4,5-d]pyrimidin-1(2H)-yl)piperidin-1-yl)-N,N-dimethyl-N-((1-methyl-4-nitro-1H-imidazol-5-yl)methyl)-4-oxobut-2-en-1-aminium bromide]
- reversible or irreversible inhibition of FGFR1 in cells [1]: reversible inhibitors
- IC50 (SUM52 cells; [9]): 737 nM

Compound: COc1cc(OC)c(Cl)c(N2Cc3cnc(Nc4ccccc4)nc3N(C3CCN(C(=O)/C=C/C[N+](C)(C)Cc4c([N+](=O)[O-])ncn4C)CC3)C2=O)c1Cl.[Br-] [Compound 204, (E)-4-(4-(3-(2,6-dichloro-3,5-dimethoxyphenyl)-2-oxo-7-(phenylamino)-3,4-dihydropyrimido[4,5-d]pyrimidin-1(2H)-yl)piperidin-1-yl)-N,N-dimethyl-N-((1-methyl-4-nitro-1H-imidazol-5-yl)methyl)-4-oxobut-2-en-1-aminium bromide]
- IC50 (SW780 cells): 1390 nM
- fold less potent than the inhibitor compound 112 at inhibiting proliferation (deactivation) (SW780 cells; SW780, oxic): 143 fold
- first order rate of fragmentation kfrag [2]: 30 s⁻¹
- change of maximum plasma concentration and area under the plasma concentration-time curve with increase in dose ([3]; 40 and 80 mg/kg intraperitoneal): linear increase
- time to maximum plasma concentration ([3]; doses of 40 and 80 mg/kg intraperitoneal): 2 to 3 h
- AUC(0-inf) ([3]; 40 mg/kg intraperitoneal, model fit): 262 ± 10.8 µM·h
- AUC(0-inf) ([3]; 80 mg/kg intraperitoneal, model fit): 606 ± 103 µM·h
- half-life ([3]; 40 mg/kg, 40 mg/kg intraperitoneal, elimination phase, read-out: T1/2 (converted)): 1.21 ± 0.06 h
- Cmax ([3]; 40 mg/kg, 40 mg/kg intraperitoneal, model fit, read-out: Cmax): 54.9 ± 2.38 µM
- Tmax ([3]; 40 mg/kg, 40 mg/kg intraperitoneal, model fit, read-out: Tmax): 1.75 ± 0.06 h
- AUC(0-t) ([3]; 40 mg/kg, 40 mg/kg intraperitoneal): 382 µM·h
- Cmax ([3]; 40 mg/kg, 40 mg/kg intraperitoneal, read-out: Cmax-obs): 51.8 ± 7.46 µM
- Tmax ([3]; 40 mg/kg, 40 mg/kg intraperitoneal, read-out: Tmax-obs): 2 h
- half-life ([3]; 80 mg/kg, 80 mg/kg intraperitoneal, elimination phase, read-out: T1/2 (converted)): 1.79 ± 0.36 h
- Cmax ([3]; 80 mg/kg, 80 mg/kg intraperitoneal, model fit, read-out: Cmax): 86.4 ± 10.4 µM
- Tmax ([3]; 80 mg/kg, 80 mg/kg intraperitoneal, model fit, read-out: Tmax): 2.58 ± 0.36 h
- AUC(0-t) ([3]; 80 mg/kg, 80 mg/kg intraperitoneal): ~900 µM·h
- Cmax ([3]; 80 mg/kg, 80 mg/kg intraperitoneal, read-out: Cmax-obs): 77.3 ± 14.7 µM
- Tmax ([3]; 80 mg/kg, 80 mg/kg intraperitoneal, read-out: Tmax-obs): 4 h
- half-life ([3]; 80 mg/kg, doses of 40 and 80 mg/kg intraperitoneal, read-out: plasma half-life): 1.2 to 1.8 h
- time for tumours to reach RTV4 ([4]; 100 umol/kg dose): approximately 26 days
- tumour response at the higher doses tested ([4]; 30 to 133 umol/kg/dose): regressed the tumours
- tumour response [5]: regressed following each drug administration
- median survival time ([6]; q2dx3): 18 days
- median survival time ([6]; q3dx3): 20 days
- median survival time ([6]; q4dx3): 21 days
- median survival time ([6]; q5dx3): 22 days
- metabolism of prodrug and release of FGFR inhibitor compound 112 in tumours [7]: hypoxia-selective metabolism
- fold less potent than the inhibitor compound 112 at inhibiting proliferation (deactivation) (H520 cells; H520, oxic): 307 fold
- Hypoxic Cytotoxicity Ratio (HCR), H520 (H520 cells; ratio of oxic and anoxic IC50): 27
- IC50 (H520 cells; read-out: Cellular Anti-proliferative IC50, H520, Anoxic, 4 hours of anoxia, remainder of assay oxic): 47 nM
- IC50 (H520 cells; [8]): 1260 nM
- fold less potent than the inhibitor compound 112 at inhibiting proliferation (deactivation) (SUM52 cells; SUM52, oxic): 296 fold
- Hypoxic Cytotoxicity Ratio (HCR), SUM52 (SUM52 cells; ratio of oxic and anoxic IC50): 12
- IC50 (SUM52 cells; read-out: Cellular Anti-proliferative IC50, SUM52, Anoxic, 4 hours of anoxia, remainder of assay oxic): 17 nM
- IC50 (SUM52 cells; [9]): 207 nM
